# Experiments:
# Design in all cases: scale not given: the % may be the effect or the level left
# [1] = molecular target: Dual specificity protein kinase TTK (Homo sapiens) (UniProt P33981); assay: Inhibition of DNA-tagged human TTK assessed as percent of control at 50000 nM by qPCR analysis relative to control
# [2] = molecular target: Platelet-derived growth factor receptor beta (Homo sapiens) (UniProt P09619); assay: Inhibition of DNA-tagged human PDGFRB assessed as percent of control at 50000 nM by qPCR analysis relative to control
# [3] = molecular target: Calcium/calmodulin-dependent protein kinase kinase 1 (Homo sapiens) (UniProt Q8N5S9); assay: Inhibition of DNA-tagged human CAMKK1 assessed as percent of control at 50000 nM by qPCR analysis relative to control
# [4] = test system: Mast/stem cell growth factor receptor Kit (Homo sapiens), P10721 [V559D,T670I]; assay: Inhibition of DNA-tagged human KIT V559D/T670I double mutant assessed as percent of control at 50000 nM by qPCR analysis relative to control
# [5] = molecular target: Serine/threonine-protein kinase Nek11 (Homo sapiens) (UniProt Q8NG66); assay: Inhibition of DNA-tagged human NEK11 assessed as percent of control at 50000 nM by qPCR analysis relative to control
# [6] = test system: Receptor-type tyrosine-protein kinase FLT3 (Homo sapiens), P36888 [K663Q]; assay: Inhibition of DNA-tagged human FLT3 K663Q mutant assessed as percent of control at 50000 nM by qPCR analysis relative to control
# [7] = molecular target: MAP kinase-activated protein kinase 5 (Homo sapiens) (UniProt Q8IW41); assay: Inhibition of DNA-tagged human MAPKAPK5 assessed as percent of control at 50000 nM by qPCR analysis relative to control
# Sequence of MAP kinase-activated protein kinase 5 (Homo sapiens) (Q8IW41 whole entry): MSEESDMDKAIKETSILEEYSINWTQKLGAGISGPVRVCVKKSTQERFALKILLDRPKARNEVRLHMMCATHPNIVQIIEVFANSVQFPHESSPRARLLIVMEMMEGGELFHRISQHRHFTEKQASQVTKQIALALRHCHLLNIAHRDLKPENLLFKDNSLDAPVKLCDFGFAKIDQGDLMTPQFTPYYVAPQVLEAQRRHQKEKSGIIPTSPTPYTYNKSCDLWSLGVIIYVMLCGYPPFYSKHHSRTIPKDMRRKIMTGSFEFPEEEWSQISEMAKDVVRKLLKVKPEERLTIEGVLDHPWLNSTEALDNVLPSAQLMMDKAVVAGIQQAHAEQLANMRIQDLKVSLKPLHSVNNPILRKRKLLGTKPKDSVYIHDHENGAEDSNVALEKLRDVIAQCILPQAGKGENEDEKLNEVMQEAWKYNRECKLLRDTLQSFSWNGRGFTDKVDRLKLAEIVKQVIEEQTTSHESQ
# [8] = molecular target: Ephrin type-B receptor 1 (Homo sapiens) (UniProt P54762); assay: Inhibition of DNA-tagged human EPHB1 assessed as percent of control at 50000 nM by qPCR analysis relative to control
# [9] = test system: Mast/stem cell growth factor receptor Kit (Homo sapiens), P10721 [D816V]; assay: Inhibition of DNA-tagged human KIT D816V mutant assessed as percent of control at 50000 nM by qPCR analysis relative to control
# [10] = molecular target: Serine/threonine-protein kinase tousled-like 2 (Homo sapiens) (UniProt Q86UE8); assay: Inhibition of DNA-tagged human TLK2 assessed as percent of control at 50000 nM by qPCR analysis relative to control
# [11] = molecular target: RAC-gamma serine/threonine-protein kinase (Homo sapiens) (UniProt Q9Y243); assay: Inhibition of DNA-tagged human AKT3 assessed as percent of control at 50000 nM by qPCR analysis relative to control
# [12] = test system: Tyrosine-protein kinase ABL1 (Homo sapiens), P00519 [M351T]; assay: Inhibition of DNA-tagged phosphorylated human ABL1 M351T mutant assessed as percent of control at 50000 nM by qPCR analysis relative to control
# [13] = molecular target: Mitogen-activated protein kinase kinase kinase 5 (Homo sapiens) (UniProt Q99683); assay: Inhibition of DNA-tagged human ASK1 assessed as percent of control at 50000 nM by qPCR analysis relative to control
# [14] = molecular target: Serine/threonine-protein kinase 4 (Homo sapiens) (UniProt Q13043); assay: Inhibition of DNA-tagged human MST1 assessed as percent of control at 50000 nM by qPCR analysis relative to control
# Sequence of Serine/threonine-protein kinase 4 (Homo sapiens) (Q13043 whole entry): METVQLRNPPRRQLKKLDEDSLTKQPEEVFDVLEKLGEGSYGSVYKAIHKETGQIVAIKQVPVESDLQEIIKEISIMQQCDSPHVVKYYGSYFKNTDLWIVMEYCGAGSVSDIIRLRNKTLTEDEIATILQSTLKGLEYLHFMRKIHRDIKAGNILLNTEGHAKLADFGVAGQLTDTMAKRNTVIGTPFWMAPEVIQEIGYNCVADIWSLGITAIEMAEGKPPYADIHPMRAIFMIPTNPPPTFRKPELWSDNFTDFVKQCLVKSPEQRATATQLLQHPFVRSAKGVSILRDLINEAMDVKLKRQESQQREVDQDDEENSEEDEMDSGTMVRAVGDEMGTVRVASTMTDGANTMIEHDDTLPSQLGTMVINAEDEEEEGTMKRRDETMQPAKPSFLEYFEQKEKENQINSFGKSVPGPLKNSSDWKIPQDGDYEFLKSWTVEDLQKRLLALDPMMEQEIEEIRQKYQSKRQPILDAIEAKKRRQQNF
# [15] = molecular target: Cyclin-dependent kinase 3 (Homo sapiens) (UniProt Q00526); assay: Inhibition of DNA-tagged human CDK3 assessed as percent of control at 50000 nM by qPCR analysis relative to control
# Sequence of Cyclin-dependent kinase 3 (Homo sapiens) (Q00526 whole entry, looked up): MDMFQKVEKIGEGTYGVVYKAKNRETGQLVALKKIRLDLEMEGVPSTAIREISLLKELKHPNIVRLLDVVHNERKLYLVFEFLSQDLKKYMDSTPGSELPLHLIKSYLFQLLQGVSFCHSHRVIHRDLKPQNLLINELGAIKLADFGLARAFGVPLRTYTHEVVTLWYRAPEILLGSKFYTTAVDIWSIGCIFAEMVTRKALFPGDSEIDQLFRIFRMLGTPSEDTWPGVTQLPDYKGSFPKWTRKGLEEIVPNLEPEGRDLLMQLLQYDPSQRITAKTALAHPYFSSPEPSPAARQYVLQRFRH
# [16] = molecular target: Serine/threonine-protein kinase 26 (Homo sapiens) (UniProt Q9P289); assay: Inhibition of DNA-tagged human MST4 assessed as percent of control at 50000 nM by qPCR analysis relative to control
# [17] = molecular target: Calcium/calmodulin-dependent protein kinase kinase 2 (Homo sapiens) (UniProt Q96RR4); assay: Inhibition of DNA-tagged human CAMKK2 assessed as percent of control at 50000 nM by qPCR analysis relative to control
# Sequence of Calcium/calmodulin-dependent protein kinase kinase 2 (Homo sapiens) (Q96RR4 2-588 limits assumed): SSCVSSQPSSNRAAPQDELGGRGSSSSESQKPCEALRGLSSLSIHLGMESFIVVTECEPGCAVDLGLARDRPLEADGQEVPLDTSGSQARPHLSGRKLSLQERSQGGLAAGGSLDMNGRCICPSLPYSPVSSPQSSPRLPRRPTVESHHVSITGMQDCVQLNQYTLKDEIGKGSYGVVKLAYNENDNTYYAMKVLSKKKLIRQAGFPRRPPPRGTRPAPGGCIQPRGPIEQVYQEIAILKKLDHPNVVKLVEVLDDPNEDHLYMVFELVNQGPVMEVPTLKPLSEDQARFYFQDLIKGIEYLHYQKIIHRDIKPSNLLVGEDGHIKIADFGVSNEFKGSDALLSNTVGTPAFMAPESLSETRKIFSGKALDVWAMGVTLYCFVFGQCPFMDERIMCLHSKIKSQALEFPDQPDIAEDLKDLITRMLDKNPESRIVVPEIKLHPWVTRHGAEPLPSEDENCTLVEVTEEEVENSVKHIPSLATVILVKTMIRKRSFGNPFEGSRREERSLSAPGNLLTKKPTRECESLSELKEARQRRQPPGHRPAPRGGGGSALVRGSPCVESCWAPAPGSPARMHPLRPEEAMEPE
# [18] = molecular target: Myosin-IIIa (Homo sapiens) (UniProt Q8NEV4); assay: Inhibition of DNA-tagged human MYO3A assessed as percent of control at 50000 nM by qPCR analysis relative to control
# [19] = test system: Mast/stem cell growth factor receptor Kit (Homo sapiens), P10721 [V559D,V654A]; assay: Inhibition of DNA-tagged human KIT V559D/V654A double mutant assessed as percent of control at 50000 nM by qPCR analysis relative to control
# [20] = molecular target: Cyclin-dependent kinase 15 (Homo sapiens) (UniProt Q96Q40); assay: Inhibition of DNA-tagged human PFTAIRE2 assessed as percent of control at 50000 nM by qPCR analysis relative to control
# Sequence of Cyclin-dependent kinase 15 (Homo sapiens) (Q96Q40 whole entry): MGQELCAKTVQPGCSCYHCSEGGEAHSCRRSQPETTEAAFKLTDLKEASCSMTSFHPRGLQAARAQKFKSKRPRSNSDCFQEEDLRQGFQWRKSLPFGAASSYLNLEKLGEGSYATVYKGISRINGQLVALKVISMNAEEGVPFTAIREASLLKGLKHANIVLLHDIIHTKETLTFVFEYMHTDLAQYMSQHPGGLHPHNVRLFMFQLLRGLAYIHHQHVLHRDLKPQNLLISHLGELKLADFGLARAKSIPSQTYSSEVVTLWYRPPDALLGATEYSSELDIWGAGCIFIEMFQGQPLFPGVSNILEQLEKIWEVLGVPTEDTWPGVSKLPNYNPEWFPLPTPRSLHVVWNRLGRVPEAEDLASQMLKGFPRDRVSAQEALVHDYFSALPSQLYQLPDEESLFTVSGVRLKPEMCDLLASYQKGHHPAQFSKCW
# [21] = molecular target: Homeodomain-interacting protein kinase 2 (Homo sapiens) (UniProt Q9H2X6); assay: Inhibition of DNA-tagged human HIPK2 assessed as percent of control at 50000 nM by qPCR analysis relative to control
# [22] = molecular target: Mitogen-activated protein kinase kinase kinase kinase 1 (Homo sapiens) (UniProt Q92918); assay: Inhibition of DNA-tagged human HPK1 assessed as percent of control at 50000 nM by qPCR analysis relative to control
# Sequence of Mitogen-activated protein kinase kinase kinase kinase 1 (Homo sapiens) (Q92918 whole entry, looked up): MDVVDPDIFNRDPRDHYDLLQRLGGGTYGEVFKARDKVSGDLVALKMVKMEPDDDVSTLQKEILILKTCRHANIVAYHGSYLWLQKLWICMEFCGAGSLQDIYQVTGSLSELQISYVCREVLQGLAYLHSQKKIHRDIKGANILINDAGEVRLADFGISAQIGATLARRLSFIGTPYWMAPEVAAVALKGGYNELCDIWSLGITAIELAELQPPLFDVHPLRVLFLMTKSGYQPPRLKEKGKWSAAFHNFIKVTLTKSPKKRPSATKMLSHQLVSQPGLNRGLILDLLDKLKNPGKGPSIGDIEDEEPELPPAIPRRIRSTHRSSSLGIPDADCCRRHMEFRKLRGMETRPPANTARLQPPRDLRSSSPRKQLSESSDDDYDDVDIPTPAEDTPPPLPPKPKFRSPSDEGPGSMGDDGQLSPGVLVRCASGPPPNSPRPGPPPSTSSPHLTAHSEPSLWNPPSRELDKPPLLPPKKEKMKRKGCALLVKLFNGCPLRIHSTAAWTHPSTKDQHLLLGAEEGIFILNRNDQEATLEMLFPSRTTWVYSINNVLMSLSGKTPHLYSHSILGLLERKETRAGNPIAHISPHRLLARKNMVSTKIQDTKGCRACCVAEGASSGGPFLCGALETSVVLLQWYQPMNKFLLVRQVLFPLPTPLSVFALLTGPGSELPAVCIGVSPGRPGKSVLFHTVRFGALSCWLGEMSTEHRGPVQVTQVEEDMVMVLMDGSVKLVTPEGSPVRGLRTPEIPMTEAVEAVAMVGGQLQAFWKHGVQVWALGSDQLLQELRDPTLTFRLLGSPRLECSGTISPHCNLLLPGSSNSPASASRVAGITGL
# [23] = molecular target: Cyclin-dependent kinase-like 2 (Homo sapiens) (UniProt Q92772); assay: Inhibition of DNA-tagged human CDKL2 assessed as percent of control at 50000 nM by qPCR analysis relative to control
# Sequence of Cyclin-dependent kinase-like 2 (Homo sapiens) (Q92772 whole entry): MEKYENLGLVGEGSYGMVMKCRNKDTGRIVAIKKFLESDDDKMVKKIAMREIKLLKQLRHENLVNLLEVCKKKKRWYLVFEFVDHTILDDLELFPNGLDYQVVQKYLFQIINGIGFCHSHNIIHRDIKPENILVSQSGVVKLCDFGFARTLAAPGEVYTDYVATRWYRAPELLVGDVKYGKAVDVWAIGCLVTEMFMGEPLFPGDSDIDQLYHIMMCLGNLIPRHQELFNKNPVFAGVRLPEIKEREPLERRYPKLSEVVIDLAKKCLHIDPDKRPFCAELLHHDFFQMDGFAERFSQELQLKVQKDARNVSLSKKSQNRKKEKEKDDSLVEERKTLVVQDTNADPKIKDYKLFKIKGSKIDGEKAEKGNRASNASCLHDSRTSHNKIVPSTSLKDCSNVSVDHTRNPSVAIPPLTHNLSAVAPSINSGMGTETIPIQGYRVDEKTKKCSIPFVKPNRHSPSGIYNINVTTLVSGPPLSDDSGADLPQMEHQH
# [24] = molecular target: Mitogen-activated protein kinase kinase kinase kinase 3 (Homo sapiens) (UniProt Q8IVH8); assay: Inhibition of DNA-tagged human MAP4K3 assessed as percent of control at 50000 nM by qPCR analysis relative to control
# [25] = molecular target: Epithelial discoidin domain-containing receptor 1 (Homo sapiens) (UniProt Q08345); assay: Inhibition of DNA-tagged human DDR1 assessed as percent of control at 50000 nM by qPCR analysis relative to control
# [26] = molecular target: Tyrosine-protein kinase HCK (Homo sapiens) (UniProt P08631); assay: Inhibition of DNA-tagged human HCK assessed as percent of control at 50000 nM by qPCR analysis relative to control
# [27] = molecular target: Serine/threonine-protein kinase Nek4 (Homo sapiens) (UniProt P51957); assay: Inhibition of DNA-tagged human NEK4 assessed as percent of control at 50000 nM by qPCR analysis relative to control
# [28] = molecular target: Ribosomal protein S6 kinase alpha-5 (Homo sapiens) (UniProt O75582); assay: Inhibition of DNA-tagged human C-terminal RPS6KA5 kinase domain 2 assessed as percent of control at 50000 nM by qPCR analysis relative to control
# [29] = molecular target: Angiopoietin-1 receptor (Homo sapiens) (UniProt Q02763); assay: Inhibition of DNA-tagged human TIE2 assessed as percent of control at 50000 nM by qPCR analysis relative to control
# Sequence of Angiopoietin-1 receptor (Homo sapiens) (Q02763 whole entry): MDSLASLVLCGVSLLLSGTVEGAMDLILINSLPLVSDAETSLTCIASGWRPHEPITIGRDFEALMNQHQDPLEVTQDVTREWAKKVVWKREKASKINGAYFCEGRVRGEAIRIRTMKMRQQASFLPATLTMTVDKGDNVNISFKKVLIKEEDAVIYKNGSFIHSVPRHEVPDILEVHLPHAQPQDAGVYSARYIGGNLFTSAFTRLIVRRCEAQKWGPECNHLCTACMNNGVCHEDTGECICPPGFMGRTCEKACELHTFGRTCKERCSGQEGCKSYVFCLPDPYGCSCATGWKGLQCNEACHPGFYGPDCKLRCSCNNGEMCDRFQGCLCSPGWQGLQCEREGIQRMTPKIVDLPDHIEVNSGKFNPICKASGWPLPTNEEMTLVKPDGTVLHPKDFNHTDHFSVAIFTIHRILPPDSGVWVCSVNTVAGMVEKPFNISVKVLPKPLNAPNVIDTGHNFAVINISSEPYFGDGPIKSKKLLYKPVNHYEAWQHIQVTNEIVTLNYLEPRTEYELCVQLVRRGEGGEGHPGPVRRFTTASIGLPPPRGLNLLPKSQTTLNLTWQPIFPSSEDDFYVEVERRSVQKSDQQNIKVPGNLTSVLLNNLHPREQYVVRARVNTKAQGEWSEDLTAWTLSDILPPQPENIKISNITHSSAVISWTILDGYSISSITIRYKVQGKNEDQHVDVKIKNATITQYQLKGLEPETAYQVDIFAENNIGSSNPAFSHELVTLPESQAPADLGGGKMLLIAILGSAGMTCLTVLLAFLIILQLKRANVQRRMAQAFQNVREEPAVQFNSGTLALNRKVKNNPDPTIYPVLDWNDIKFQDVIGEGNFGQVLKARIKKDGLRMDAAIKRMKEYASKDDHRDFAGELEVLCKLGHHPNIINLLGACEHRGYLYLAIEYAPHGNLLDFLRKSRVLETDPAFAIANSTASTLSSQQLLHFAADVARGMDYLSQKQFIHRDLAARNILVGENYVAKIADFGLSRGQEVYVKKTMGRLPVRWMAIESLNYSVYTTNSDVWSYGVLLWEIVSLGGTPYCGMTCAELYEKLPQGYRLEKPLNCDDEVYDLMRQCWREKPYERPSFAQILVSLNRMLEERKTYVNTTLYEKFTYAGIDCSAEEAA
compound,measurement,setting,value
CN1C(=O)/C(=C2/C(=O)Nc3ccccc32)c2ccccc21,Activity,[1],88%
same,Activity,[2],100%
same,Activity,[3],86%
same,Activity,[4],93%
same,Activity,[5],100%
same,Activity,[6],91%
same,Activity,[7],100%
same,Activity,[8],97%
same,Activity,[9],100%
same,Activity,[10],88%
same,Activity,[11],92%
same,Activity,[12],73%
same,Activity,[13],100%
same,Activity,[14],95%
same,Activity,[15],78%
same,Activity,[16],100%
same,Activity,[17],100%
same,Activity,[18],100%
same,Activity,[19],100%
same,Activity,[20],88%
same,Activity,[21],66%
same,Activity,[22],93%
same,Activity,[23],100%
same,Activity,[24],90%
same,Activity,[25],84%
same,Activity,[26],100%
same,Activity,[27],86%
same,Activity,[28],100%
same,Activity,[29],100%

# — ChEMBL document CHEMBL4804284
